15 molecules from patent US10072014B2 (Janssen Pharmaceutica NV, priority 2014, dated 2018) can be followed below.

One data set has as its system rats. Description: Reversal of the effect of the mGluR2 PAM JNJ-42153605-induced inhibition of scopolamine-induced hyperlocomotion. It is filed as in vivo. As to conditions: Rattus norvegicus, PO, criterion for reversal: total distance >1500 cm, read-out: ED50 SCOP JNJ-42153605. The protocol:
2) Reversal of the Effect of the mGluR2 PAM JNJ-42153605-induced Inhibition of Scopolamine-induced Hyperlocomotion Apparatus
Motor activity was measured in microprocessor-based motor activity arenas (closed gray PVC cylinders with a height of 39 cm and a diameter of 31 cm). Each arena was placed on an infrared LED (8×8 LEDs) lit box (white PVC squared box; 40×40 cm^2; height 12.5 cm. An infrared-sensitive tube camera and a white light source were mounted to the ceiling above the observation chamber to track the animal. The total distance traveled (cm) was recorded and analyzed using the Noldus Ethovision XT Video Tracking System (Version 7.0.418; Noldus, Wageningen, The Netherlands). The intensity of the light within the activity cages (measured in the centre at the level of the floor) ranged between 4 and 8 LUX.
The rats were pretreated with test compound or vehicle at 60 min before the start of the activity recordings and placed into individual cages. The rats were challenged with JNJ-42153605 (3-(cyclopropylmethyl)-7-(4-phenylpiperidin-1-yl)-8-(trifluoromethyl)-[1,2,4]triazolo[4,3-a]pyridine; WO2010/130424; Cid et al. J. Med. Chem. 2012, 55, 8770-8789) (20 mg/kg, i.v.) 30 min before the start of the activity recording combined with scopolamine (0.16 mg/kg, i.v.) just before the start of the activity measurements. Immediately after the injection of scopolamine, the rats were placed into the activity monitors and total distance traveled over the first 30 min was measured.
Solvent-pretreated Control Rats.
Animals receiving the combination of JNJ-42153605 and scopolamine (n=433) almost always traveled a distance of less than 1500 cm (<1500 cm) (only 2.5% of the control rats traveled a distance of more than 1500 cm (>1500 cm)). On the other hand, animals challenged with scopolamine alone (n=215) always traveled a total distance of more than 1500 cm (>1500 cm) and almost always (in 95.8% of the rats) a distance of more than 4400 cm (>4400 cm). […] For reversal of the inhibitory effect of JNJ-42153605 on the scopolamine-induced hyperlocomotion, the following all-or-none criteria were adopted: (1) reversal: total distance>1500 cm.

Another data set deals with T1, human mGlu2 receptor (Homo sapiens, UniProt Q14416).
T1 construct: expressed in transfected cells; host or cells: CHO cells
Description: [35S]GTPγS binding assay, negative allosteric modulation of mGluR2. In kind it is biochemical. The settings on record: for Emax: maximal % inhibition relative to the control glutamate response (EC80 glutamate), read-out: GTPγS-hmGluR2 anGT Emax; for IC50: membranes from CHO cells transfected with human mGlu2 receptor, glutamate 60 μM (~EC80), read-out: GTPγS-hmGluR2 anGT pIC50 (converted). An excerpt: The compounds provided in the present invention are negative allosteric modulators of mGluR2. These compounds appear to inhibit glutamate responses by binding to an allosteric site other than the glutamate binding site. The response of mGluR2 to a concentration of glutamate is decreased when compounds of Formula (I) are present. Compounds of Formula (I) are expected to have their effect substantially at mGluR2 by virtue of their ability to reduce the function of the receptor. The effects of negative allosteric modulators tested at mGluR2 using the [^35S]GTPγS binding assay method described below and which is suitable for the identification of such compounds, and more particularly the compounds according to Formula (I), are shown in Table 7.
1) [^35S]GTPγS Binding Assay
The [^35S]GTPγS binding assay is a functional membrane-based assay used to study G-protein coupled receptor (GPCR) function whereby incorporation of a non-hydrolysable form of GTP, [^35S]GTPγS (guanosine 5′-triphosphate, labelled with […] ^35S), is measured. The G-protein a subunit catalyzes the exchange of guanosine 5′-diphosphate (GDP) by guanosine triphosphate (GTP) and on activation of the GPCR by an agonist, [^35S]GTPγS, becomes incorporated and cannot be cleaved to continue the exchange cycle (Harper (1998) Current Protocols in Pharmacology 2.6.1-10, John Wiley & Sons, Inc.). […] Here we describe the use of the [^35S]GTPγS binding assay using membranes from cells transfected with the human mGlu2 receptor and adapted from Schaffhauser et al. (Molecular Pharmacology, 2003, […]) for the detection of the negative allosteric modulation (NAM) properties of the compounds of this invention.
CHO-cells were cultured to pre-confluence and stimulated with 5 mM butyrate for 24 h. Cells were then collected by scraping in PBS and cell suspension was centrifuged (10 min at 4000 RPM in benchtop centrifuge). Supernatant was discarded and pellet gently resuspended in 50 mM Tris-HCl, pH 7.4 by mixing with an Ultra Turrax homogenizer. The suspension was centrifuged at 12,400 RPM (Sorvall F14S-6x250Y) for 10 minutes and the supernatant discarded. The pellet was homogenized in 5 mM Tris-HCl, pH 7.4 using an Ultra Turrax homogenizer and centrifuged again (13,000 RPM, 20 min, 4° C.). The final pellet was resuspended in 50 mM Tris-HCl, pH 7.4 and stored at −80° C. in appropriate aliquots before use. Protein concentration was determined by the Bradford method (Bio-Rad, USA) with bovine serum albumin as standard.
[^35S]GTPγS Binding Assay
Measurement of mGluR2 negative allosteric modulatory activity of test compounds was performed as follows. Test compounds and glutamate were diluted in assay buffer containing 10 mM HEPES acid, 10 mM HEPES salt, pH 7.4, 100 mM NaCl, 3 mM MgCl2 and 10 μM GDP. Human mGlu2 receptor-containing membranes were thawed on ice and diluted in assay buffer supplemented with 18 μg/ml saponin. Membranes were pre-incubated with compound together with a predefined (˜EC80) concentration of glutamate (60 μM) for 30 min at 30° C. After addition of [^35S]GTPγS (f.c. 0.1 nM), assay mixtures were shaken briefly and further incubated to allow [^35S]GTPγS incorporation on activation (30 minutes, 30° C.). Final assay mixtures contained 7 μg of membrane protein in 10 mM HEPES acid, 10 mM HEPES salt, pH 7.4, 100 mM NaCl, 3 mM MgCl2, 10 μM GDP and 10 μg/ml saponin. Total reaction volume was 200 μl. Reactions were terminated by rapid filtration through Unifilter-96 GF/B plates (Perkin Elmer, Massachusetts, USA) using a 96-well filtermate universal harvester. Filters were washed 6 times with ice-cold 10 mM NaH2PO4/10 mM Na2HPO4, pH 7.4. Filters were then air-dried, and 30 μl of liquid scintillation cocktail (Microscint-O) was added to each well. Membrane-bound radioactivity was counted in a Topcount.
The concentration-response curves of representative compounds of the present invention were generated using the Lexis software interface (developed at J&J). […]
A general note: GTPγS is a poorly hydrolysed GTP analogue; its binding reports G protein activation.

The subject of another data set is Wiga Wistar rats. Description: Reversal of LY-404039-induced decrease of palpebral opening in apomorphine-challenged rats. In kind it is in vivo. As to conditions: Rattus norvegicus, PO, criterion: cumulative palpebral opening score >26, read-out: ED50 APO LY-404039. The procedure:
B) In Vivo Pharmacology 1) Reversal of LY-404039-induced Decrease of Palpebral Opening in Apomorphine-challenged Rats.
Male Wiga Wistar rats (Crl:WI; Charles River Germany; 220±40 g) were housed under standard laboratory conditions (21±2° C.; 50-65% relative humidity; light-dark cycle set at 12 h; lights on at 6.00 h) and fasted overnight prior to the start of the experiments (tap water remained available ad libitum). During the test period, they were housed in individual cages. Palpebral opening was scored every 5 min over the first hour after injection of apomorphine (1.0 mg/kg, i.v.) in animals either pretreated or not pretreated with LY-404039 (2.5 mg/kg, s.c.) at 1 h prior to the apomorphine injection. The animals were also pretreated with test compound or solvent at a predefined interval before apomorphine challenge. The score system was: (5) exophthalmos, (4) wide open, (3) open for three-quarters, (2) half open, (1) open for one-quarter, (0) closed. The scores for palpebral opening were cumulated over the 60-min observation period. A cumulative palpebral opening score>26 was selected for drug-induced reversal of the LY-404039-induced decrease of palpebral opening (occurrence in 3.2% of control animals pretreated with LY-404039 (n=154) versus in 99.5% of control rats not pretreated with LY-404039 (n=6335)). […]

The structures appear in SMILES notation.

Usually melting point stands for the temperature of the solid-liquid transition. By ED50 is commonly meant the dose that gives a 50% effect, or the effect in half of the subjects. For orientation: Emax means the maximal effect, on the per cent scale that the assay sets.

T1 sequence (Q14416 19-872): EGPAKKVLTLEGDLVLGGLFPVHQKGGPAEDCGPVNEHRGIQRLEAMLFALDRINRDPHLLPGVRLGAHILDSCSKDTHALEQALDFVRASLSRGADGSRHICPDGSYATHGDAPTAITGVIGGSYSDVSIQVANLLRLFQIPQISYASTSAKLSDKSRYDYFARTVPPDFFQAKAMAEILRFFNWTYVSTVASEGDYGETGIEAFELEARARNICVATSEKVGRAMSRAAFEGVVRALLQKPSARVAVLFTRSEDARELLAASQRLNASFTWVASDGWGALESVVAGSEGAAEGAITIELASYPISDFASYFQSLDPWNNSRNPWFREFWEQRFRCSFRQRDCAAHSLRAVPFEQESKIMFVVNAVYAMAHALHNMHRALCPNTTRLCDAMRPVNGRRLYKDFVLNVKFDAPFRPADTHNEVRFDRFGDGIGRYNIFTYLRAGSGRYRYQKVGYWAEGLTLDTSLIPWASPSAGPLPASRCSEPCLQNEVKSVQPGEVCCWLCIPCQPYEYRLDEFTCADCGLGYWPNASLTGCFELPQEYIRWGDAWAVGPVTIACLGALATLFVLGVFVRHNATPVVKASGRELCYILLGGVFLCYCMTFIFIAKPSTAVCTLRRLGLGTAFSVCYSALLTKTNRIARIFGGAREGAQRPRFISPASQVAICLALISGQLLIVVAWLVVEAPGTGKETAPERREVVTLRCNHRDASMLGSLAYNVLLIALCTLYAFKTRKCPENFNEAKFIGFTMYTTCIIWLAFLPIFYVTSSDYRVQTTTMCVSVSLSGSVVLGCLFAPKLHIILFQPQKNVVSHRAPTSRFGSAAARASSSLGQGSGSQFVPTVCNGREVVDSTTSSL

Consider `Cc1nc(-c2cnn3c2C(=O)N(c2ccc(C(F)(F)F)cc2)C[C@@H]3C)c[nH]1` [Compound 4], for which the melting point is 167.9 °C. For the same molecule, in the data set on rats, the ED50 is more than 2.5 mg/kg. At human mGlu2 receptor, the maximum response (Emax) amounted to 104% and the IC50 is 25.7 nM.

Take `Cc1nc(C2CC2)[nH]c1-c1cnn2c1C(=O)N(c1ccc(C(F)(F)F)cc1)C[C@@H]2C` [Compound 7]: the ED50 in the data set on rats was more than 0.63 mg/kg. At human mGlu2 receptor, the Emax was determined as 106% and the IC50 was 31.6 nM.

Molecule `C[C@H]1CN(c2ccc(C(F)(F)F)cc2)C(=O)c2c(-c3c[nH]c(-c4ccc(N)nc4)n3)cnn21` [Compound 11] showed a melting point of 276.61 °C. Besides, in the data set with rats, the ED50 was more than 0.63 mg/kg. Moreover, at human mGlu2 receptor, the Emax is 109% and the IC50 was 55 nM.

Regarding `Cc1[nH]c(-c2ccc(N)nc2)nc1-c1cnn2c1C(=O)N(c1ccc(C(F)(F)F)cc1)C[C@@H]2C` [Compound 16], the melting point came to 215.62 °C. In the data set with rats, the ED50 was more than 0.63 mg/kg. Further, at human mGlu2 receptor, the Emax was found to be 108% and the IC50 was 186 nM.

With `C[C@H]1CN(c2ccc(Cl)c(Cl)c2)C(=O)c2c(-c3c[nH]c(-c4ccccn4)n3)cnn21` [Compound 18], the melting point was determined as 278.31 °C. Further, the ED50 in the data set with rats is more than 0.63 mg/kg. At human mGlu2 receptor, the Emax turned out to be 110% and the IC50 was 9.12 nM.

`Cc1cc(N2C[C@H](C)n3ncc(-c4[nH]c(C5CC5)nc4C)c3C2=O)ccc1C(F)(F)F` [Compound 21]: the melting point amounted to 146.2 °C. Further, the ED50 in the data set with rats is more than 0.63 mg/kg. At human mGlu2 receptor, the Emax came out at 108% and the IC50 is 5.75 nM.

In turn, `Cc1cc(N2C[C@H](C)n3ncc(-c4c[nH]c(-c5ccccn5)n4)c3C2=O)ccc1C(F)(F)F` [Compound 22] yielded a melting point of 140.5 °C. Further, in the data set on rats, the ED50 was more than 0.63 mg/kg. At human mGlu2 receptor, the Emax was found to be 110% and the IC50 is 16.2 nM.

With `C[C@H]1CN(c2ccc(C(F)(F)F)c(Cl)c2)C(=O)c2c(-c3c[nH]c(C4CC4)n3)cnn21` [Compound 25], the ED50 in the data set on Wiga Wistar rats turned out to be 0.79 mg/kg. The 50% effective dose (ED50) in the data set with rats turned out to be 0.726 mg/kg. For the same molecule, at human mGlu2 receptor, the Emax was found to be 106% and the IC50 was 2 nM.

In the case of `CC(C)c1nc(-c2cnn3c2C(=O)N(c2ccc(C(F)(F)F)c(Cl)c2)C[C@@H]3C)c[nH]1` [Compound 26], the melting point came to 160.38 °C. Also, in the data set with rats, the ED50 was determined as 1.99 mg/kg. Further, at human mGlu2 receptor, the Emax worked out at 111% and the IC50 is 2.69 nM.

With `Cc1nc(C2CC2)[nH]c1-c1cnn2c1C(=O)N(c1ccc(C(F)(F)F)c(Cl)c1)C[C@@H]2C` [Compound 28], the melting point is 158.23 °C. Moreover, the ED50 in the data set on rats was more than 0.63 mg/kg. Moreover, on human mGlu2 receptor, the Emax worked out at 111% and the IC50 is 3.72 nM.

Take `Cc1nc(C)c(-c2cnn3c2C(=O)N(c2ccc(C(F)(F)F)c(Cl)c2)C[C@@H]3C)[nH]1.Cl` [Compound 30]: the melting point stood at 270.45 °C. In the data set with rats, the ED50 is 1.99 mg/kg. Further, on human mGlu2 receptor, the Emax was 109% and the IC50 was 6.31 nM.

Turning to `C[C@H]1CN(c2ccc(C(F)(F)F)c(Cl)c2)C(=O)c2c(-c3c[nH]c(C(N)=O)n3)cnn21` [Compound 31], the melting point is 269.95 °C. The ED50 with rats is more than 0.63 mg/kg. Further, at human mGlu2 receptor, the Emax is 107% and the IC50 was 10.2 nM.

For `Cc1[nH]c(-c2cccnc2)nc1-c1cnn2c1C(=O)N(c1ccc(C(F)(F)F)c(Cl)c1)C[C@@H]2C` [Compound 32], the melting point came out at 269.39 °C. Further, in the data set with rats, the ED50 was more than 0.63 mg/kg. Besides, at human mGlu2 receptor, the Emax worked out at 109% and the IC50 was 15.5 nM.

Take `C[C@H]1CN(c2ccc(C(F)(F)F)c(Cl)c2)C(=O)c2c(-c3c[nH]c(-c4ccc(N)nc4)n3)cnn21` [Compound 33]: the melting point is 286.55 °C. In the data set on rats, the ED50 was more than 0.63 mg/kg. Further, at human mGlu2 receptor, the Emax was found to be 106% and the IC50 was 16.2 nM.

Consider `Cc1[nH]c(-c2ccc(N)nc2)nc1-c1cnn2c1C(=O)N(c1ccc(C(F)(F)F)c(Cl)c1)C[C@@H]2C` [Compound 34], for which the melting point was 280.85 °C. The ED50 in the data set with rats is more than 0.63 mg/kg. Moreover, on human mGlu2 receptor, the Emax turned out to be 109% and the IC50 is 30.9 nM.
